Experiments:
Type in all cases: cell-based
[1] = test system: Staphylococcus carnosus ATCC51365; test: Yeast screening assay: radial diffusion assay of yeast supernatants; set-up: key: An activity of 3 is better than Plectasin; An activity of 2 corresponds to the activity of Plectasin; 1 is worse than Plectasin; settings: yeast supernatant, clearing zone in radial diffusion assay
In short: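 Supernatants from S. cerevisiae expressing plectasin variants, grown 3 days at 30 °C in galactose medium, were applied to agarose containing 5×10^5 cfu/mL S. carnosus. Plates were incubated 3 h at 37 °C, overlaid, left overnight and MTT-stained. Clearing zones were scored as 2 = plectasin-like, 3 = better, 1 = worse.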

[2] = test system: Staphylococcus aureus, ATCC 29213; test: MIC, NCCLS/CLSI guidelines (Example 5), strain A; settings: relative to wildtype Plectasin; average of two independent experiments
In short: (§1)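 Relative MIC category versus wild-type plectasin (0 >100%, 1 80-100%, 2 50-80%, 3 <50%), mean of two experiments. Determined per CLSI broth guidelines with expressed, purified peptides.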

[3] = test system: Staphylococcus aureus, ATCC 25923; test: MIC, NCCLS/CLSI guidelines (Example 5), strain B; settings: relative to wildtype Plectasin; average of two independent experiments
Description: Plectasin wild-type (SEQ ID NO: 1) and several variants of Plectasin were expressed and purified. The Minimal Inhibitory Concentration (MIC) was determined to test for their antimicrobial activity following the NCCLS guidelines from CLSI (Clinical and Laboratory Standards Institute; formerly known as National Committee for Clinical and Laboratory Standards).
The peptides were tested against the following strains: • A: Staphylococcus aureus, ATCC 29213; • B: Staphylococcus aureus, ATCC 25923; • C: Staphylococcus aureus, ATCC 29737; • D: Staphylococcus aureus, MRSA ST5 (2001), multi-resistant clinical human isolate from Statens Serum Institut, Denmark; • E: Staphylococcus aureus, MRSA ST80 (2003), multi-resistant clinical human isolate from Statens Serum Institut, Denmark.
All MIC values represent an average of two independent experiments; and all results in Table 5 are expressed relative to wildtype Plectasin:
0: >100% of Plectasin wildtype MIC; 1: 80-100% of Plectasin wildtype MIC; 2: 50-80% of Plectasin wildtype MIC; 3: <50% of Plectasin wildtype MIC.

[4] = test system: Staphylococcus aureus, ATCC 29737; test: MIC, NCCLS/CLSI guidelines (Example 5), strain C; settings: relative to wildtype Plectasin; average of two independent experiments
In short: as §1

[5] = test system: Staphylococcus aureus, MRSA ST5 (2001); test: MIC, NCCLS/CLSI guidelines (Example 5), strain D; settings: relative to wildtype Plectasin; average of two independent experiments
In short: (§2)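 Purified Plectasin variants were tested for MIC per NCCLS/CLSI guidelines; strains D and E are multi-resistant clinical human MRSA isolates. MICs average two independent experiments and are scored relative to wild-type Plectasin MIC: 0 >100%, 1 80-100%, 2 50-80%, 3 <50%.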

[6] = test system: Staphylococcus aureus, MRSA ST80 (2003); test: MIC, NCCLS/CLSI guidelines (Example 5), strain E; settings: relative to wildtype Plectasin; average of two independent experiments
In short: as §2

[7] = test system: panel of 6 different strains of Staphylococcus aureus; test: Average MIC, NCCLS/CLSI guidelines using caMHB (Example 6); settings: average over 6 S. aureus strains, duplicate; MIC above 32 counted as 64; read after 18-24 hours at 37° C.
In short: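 MICs were determined by broth dilution per NCCLS/CLSI in caMHB against six S. aureus strains (four MSSA, two MRSA), with peptides at 0.03–32 microgram/mL, read after 18-24 h at 37° C. Each was tested in duplicate and the two results averaged; MICs above 32 micrograms/mL were counted as 64.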

GFGCKGPWDEDDMQCHNHCKSIKGYRGGYCAKGGFVCKCY [N5K + K26R]
Activity (antimicrobial activity relative to the activity of plectasin) [1]: 3 | Relative MIC, strain A [2]: 1 (80-100% of Plectasin wildtype MIC) | Relative MIC, strain B [3]: 2 (50-80% of Plectasin wildtype MIC) | Relative MIC, strain C [4]: 3 (<50% of Plectasin wildtype MIC) | Relative MIC, strain D [5]: 2 (50-80% of Plectasin wildtype MIC) | Relative MIC, strain E [6]: 2 (50-80% of Plectasin wildtype MIC) | Average MIC [7]: 9 micrograms/mL

GFGCNGPWDEDDMRCHNHCKSIKGYRGGYCAKGGFVCRCY [Q14R + K26R + K38R]
Activity (antimicrobial activity relative to the activity of plectasin) [1]: 3 | Relative MIC, strain A [2]: 3 (<50% of Plectasin wildtype MIC) | Relative MIC, strain B [3]: 3 (<50% of Plectasin wildtype MIC) | Relative MIC, strain C [4]: 3 (<50% of Plectasin wildtype MIC) | Relative MIC, strain D [5]: 3 (<50% of Plectasin wildtype MIC) | Relative MIC, strain E [6]: 3 (<50% of Plectasin wildtype MIC) | Average MIC [7]: 2 micrograms/mL

GFGCNGPWDEDDMRCHNHCKSIRGYRGGYCAKGGFVCKCY [Q14R + K23R + K26R]
Activity (antimicrobial activity relative to the activity of plectasin) [1]: 2 | Relative MIC, strain A [2]: 3 (<50% of Plectasin wildtype MIC) | Relative MIC, strain B [3]: 3 (<50% of Plectasin wildtype MIC) | Relative MIC, strain C [4]: 3 (<50% of Plectasin wildtype MIC) | Relative MIC, strain D [5]: 3 (<50% of Plectasin wildtype MIC) | Relative MIC, strain E [6]: 3 (<50% of Plectasin wildtype MIC) | Average MIC [7]: 2 micrograms/mL

GFGCNGPWDEDDMRCHNHCRSIKGYKGGYCAKGGFVCKCY [Q14R + K20R]
Activity (antimicrobial activity relative to the activity of plectasin) [1]: 2 | Relative MIC, strain A [2]: 3 (<50% of Plectasin wildtype MIC) | Relative MIC, strain B [3]: 3 (<50% of Plectasin wildtype MIC) | Relative MIC, strain C [4]: 3 (<50% of Plectasin wildtype MIC) | Relative MIC, strain D [5]: 3 (<50% of Plectasin wildtype MIC) | Relative MIC, strain E [6]: 3 (<50% of Plectasin wildtype MIC) | Average MIC [7]: 3 micrograms/mL

GFGCNGPWDEGDMQCHNHCKSIKGYKGGYCARGGFVCKCY [D11G + K32R]
Activity (antimicrobial activity relative to the activity of plectasin) [1]: 3 | Relative MIC, strain A [2]: 1 (80-100% of Plectasin wildtype MIC) | Relative MIC, strain B [3]: 3 (<50% of Plectasin wildtype MIC) | Relative MIC, strain C [4]: 3 (<50% of Plectasin wildtype MIC) | Relative MIC, strain D [5]: 2 (50-80% of Plectasin wildtype MIC) | Relative MIC, strain E [6]: 3 (<50% of Plectasin wildtype MIC) | Average MIC [7]: 5 micrograms/mL

GFGCNGPWDENDMQCHNHCKSIKGYKGGYCAKGGFVCKCY [Mutation D11N]
Activity (antimicrobial activity relative to the activity of plectasin) [1]: 3 | Relative MIC, strain A [2]: 2 (50-80% of Plectasin wildtype MIC) | Relative MIC, strain B [3]: 3 (<50% of Plectasin wildtype MIC) | Relative MIC, strain C [4]: 2 (50-80% of Plectasin wildtype MIC) | Relative MIC, strain D [5]: 2 (50-80% of Plectasin wildtype MIC) | Relative MIC, strain E [6]: 3 (<50% of Plectasin wildtype MIC) | Average MIC [7]: 6 micrograms/mL

GFGCNGPWGEDDMRCHNHCKSIRGYKGGYCAKGGFVCKCY [D9G + Q14R + K23R]
Activity (antimicrobial activity relative to the activity of plectasin) [1]: 3 | Relative MIC, strain A [2]: 3 (<50% of Plectasin wildtype MIC) | Relative MIC, strain B [3]: 3 (<50% of Plectasin wildtype MIC) | Relative MIC, strain C [4]: 3 (<50% of Plectasin wildtype MIC) | Relative MIC, strain D [5]: 3 (<50% of Plectasin wildtype MIC) | Relative MIC, strain E [6]: 3 (<50% of Plectasin wildtype MIC) | Average MIC [7]: 2 micrograms/mL

GFGCRGPWDEDDMQCHNHCKSIKGYKGGYCAKGGFVCKCY [Mutation N5R]
Activity (antimicrobial activity relative to the activity of plectasin) [1]: 3 | Relative MIC, strain A [2]: 1 (80-100% of Plectasin wildtype MIC) | Relative MIC, strain B [3]: 2 (50-80% of Plectasin wildtype MIC) | Relative MIC, strain C [4]: 2 (50-80% of Plectasin wildtype MIC) | Relative MIC, strain D [5]: 2 (50-80% of Plectasin wildtype MIC) | Relative MIC, strain E [6]: 2 (50-80% of Plectasin wildtype MIC) | Average MIC [7]: 8 micrograms/mL

GFGCSGPWDEDDMRCHNHCKAIRGYKGGYCAKGGFVCKCY [N5S + Q14R + S21A + K23R]
Activity (antimicrobial activity relative to the activity of plectasin) [1]: 3 | Relative MIC, strain A [2]: 1 (80-100% of Plectasin wildtype MIC) | Relative MIC, strain B [3]: 3 (<50% of Plectasin wildtype MIC) | Relative MIC, strain C [4]: 2 (50-80% of Plectasin wildtype MIC) | Relative MIC, strain D [5]: 2 (50-80% of Plectasin wildtype MIC) | Relative MIC, strain E [6]: 0 (>100% of Plectasin wildtype MIC) | Average MIC [7]: 9 micrograms/mL

N5S + D9A + K26R: variant of Plectasin (SEQ ID NO: 1) (GFGCSGPWAEDDMQCHNHCKSIKGYRGGYCAKGGFVCKCY)
Relative MIC, strain A [2]: 3 (<50% of Plectasin wildtype MIC) | Relative MIC, strain B [3]: 3 (<50% of Plectasin wildtype MIC) | Relative MIC, strain C [4]: 3 (<50% of Plectasin wildtype MIC) | Relative MIC, strain D [5]: 3 (<50% of Plectasin wildtype MIC) | Relative MIC, strain E [6]: 3 (<50% of Plectasin wildtype MIC) | Average MIC [7]: 3 micrograms/mL

N5S + D9S + M13L + Q14R + N17V + A31S: variant of Plectasin (SEQ ID NO: 1) (GFGCSGPWSEDDLRCHVHCKSIKGYKGGYCSKGGFVCKCY)
Relative MIC, strain A [2]: 3 (<50% of Plectasin wildtype MIC) | Relative MIC, strain B [3]: 3 (<50% of Plectasin wildtype MIC) | Relative MIC, strain C [4]: 3 (<50% of Plectasin wildtype MIC) | Relative MIC, strain D [5]: 3 (<50% of Plectasin wildtype MIC) | Relative MIC, strain E [6]: 3 (<50% of Plectasin wildtype MIC) | Average MIC [7]: 2 micrograms/mL

N5S + D9S + M13V + N17R: variant of Plectasin (SEQ ID NO: 1) (GFGCSGPWSEDDVQCHRHCKSIKGYKGGYCAKGGFVCKCY)
Relative MIC, strain A [2]: 3 (<50% of Plectasin wildtype MIC) | Relative MIC, strain B [3]: 3 (<50% of Plectasin wildtype MIC) | Relative MIC, strain C [4]: 3 (<50% of Plectasin wildtype MIC) | Relative MIC, strain D [5]: 3 (<50% of Plectasin wildtype MIC) | Relative MIC, strain E [6]: 3 (<50% of Plectasin wildtype MIC) | Average MIC [7]: 2 micrograms/mL

N5S + D9S: variant of Plectasin (SEQ ID NO: 1) (GFGCSGPWSEDDMQCHNHCKSIKGYKGGYCAKGGFVCKCY)
Relative MIC, strain A [2]: 0 (>100% of Plectasin wildtype MIC) | Relative MIC, strain B [3]: 3 (<50% of Plectasin wildtype MIC) | Relative MIC, strain C [4]: 3 (<50% of Plectasin wildtype MIC) | Relative MIC, strain D [5]: 2 (50-80% of Plectasin wildtype MIC) | Relative MIC, strain E [6]: 3 (<50% of Plectasin wildtype MIC) | Average MIC [7]: 6 micrograms/mL

From patent US20100120690A1, “Polypeptides Having Antimicrobial Activity and Polynucleotides Encoding Same” (Novozymes Adenium Biotech A/S, priority 2005, published 2010)
